Assays:
[1] = tested on: Klebsiella aerogenes; assay: In vitro minimal inhibitory concentration (MIC) of compound in combination with Ceftazidime (CAZ) showed synergic activity against Enterobacter aerogenes S-97; type: functional
[2] = tested on: Enterobacter cloacae; assay: In vitro minimal inhibitory concentration (MIC) of compound in combination with Ceftazidime (CAZ) showed synergic activity against Enterobacter cloacae S-65; type: functional
[3] = tested on: Enterobacter cloacae; assay: In vitro minimal inhibitory concentration (MIC) of compound in combination with Ceftazidime (CAZ) showed synergic activity against Enterobacter cloacae 40011; type: functional
[4] = tested on: Klebsiella aerogenes; assay: In vitro minimal inhibitory concentration (MIC) of compound in combination with Ceftazidime (CAZ) showed synergic activity against Enterobacter aerogenes 41006; type: functional
[5] = tested on: Enterobacter cloacae; assay: In vitro minimal inhibitory concentration (MIC) of compound in combination with Ceftazidime (CAZ) showed synergic activity against Enterobacter cloacae E40002; type: functional
[6] = tested on: Citrobacter freundii; assay: In vitro minimal inhibitory concentration (MIC) of compound in combination with Ceftazidime (CAZ) showed synergic activity against Citrobacter freundii 44032; type: functional
[7] = tested on: Klebsiella pneumoniae; assay: In vitro minimal inhibitory concentration (MIC) of compound in combination with Ceftazidime (CAZ) showed synergic activity against Klebsiella pneumoniae CTX 1; type: functional
[8] = tested on: Pseudomonas aeruginosa; assay: microbe, parasite or virus in culture
[9] = tested on: Escherichia coli; assay: In vitro minimal inhibitory concentration (MIC) of compound in combination with Ceftazidime (CAZ) showed synergic activity against Escherichia coli TEM 7; type: functional
[10] = tested on: Escherichia coli; assay: In vitro minimal inhibitory concentration (MIC) of compound in combination with Ceftazidime (CAZ) showed synergic activity against Escherichia coli TEM 3; type: functional
[11] = tested on: Pseudomonas aeruginosa; assay: In vitro minimal inhibitory concentration (MIC) of compound in combination with Ceftazidime (CAZ) showed synergic activity against Pseudomonas aeruginosa 46220 (DR-2); type: functional
[12] = tested on: Enterobacter cloacae; assay: In vitro minimal inhibitory concentration (MIC) of compound in combination with Ceftazidime (CAZ) showed synergic activity against Enterobacter cloacae P99; type: functional
[13] = tested on: Klebsiella aerogenes; assay: In vitro minimal inhibitory concentration (MIC) of compound in combination with Ceftazidime (CAZ) showed synergic activity against Enterobacter aerogenes 41004; type: functional
[14] = tested on: Proteus vulgaris; assay: In vitro minimal inhibitory concentration (MIC) of compound in combination with Ceftazidime (CAZ) showed synergic activity against Proteus vulgaris CT 106; type: functional
[15] = tested on: Morganella morganii; assay: In vitro minimal inhibitory concentration (MIC) of compound in combination with Ceftazidime (CAZ) showed synergic activity against Morganella morganii 36014; type: functional
[16] = tested on: Morganella morganii; assay: In vitro minimal inhibitory concentration (MIC) of compound in combination with Ceftazidime (CAZ) showed synergic activity against Morganella morganii 36030; type: functional
[17] = tested on: Citrobacter freundii; assay: In vitro minimal inhibitory concentration (MIC) of compound in combination with Ceftazidime (CAZ) showed synergic activity against Citrobacter freundii CT 76; type: functional
[18] = tested on: Enterobacter cloacae; assay: In vitro minimal inhibitory concentration (MIC) of compound in combination with Ceftazidime (CAZ) showed synergic activity against Enterobacter cloacae S-11; type: functional
[19] = tested on: Klebsiella aerogenes; assay: In vitro minimal inhibitory concentration (MIC) of compound in combination with Ceftazidime (CAZ) showed synergic activity against Enterobacter aerogenes 41003; type: functional
[20] = tested on: Pseudomonas aeruginosa; assay: microbe, parasite or virus in culture; remark: listed apart in the source
[21] = tested on: Pseudomonas aeruginosa; assay: microbe, parasite or virus in culture; remark: listed apart in the source
[22] = tested on: Pseudomonas aeruginosa; assay: microbe, parasite or virus in culture; remark: listed apart in the source
Description: In vitro minimal inhibitory concentration (MIC) of compound against Pseudomonas aeruginosa CT-122 in combination with Ceftazidime (CAZ)

[23] = Morganella morganii, read-out: MIC

`CC(C)(O/N=C(\C(=O)NC1C(=O)N2C(C(=O)[O-])=C(C[n+]3ccccc3)CSC12)c1csc(N)n1)C(=O)O.C[C@]1(Cn2ccnn2)[C@H](C(=O)[O-])N2C(=O)CC2S1(=O)=O.[Na+]` (stereo not drawn) showed an MIC [1] of 1 µg/mL, an MIC [2] of less than 0.25 µg/mL and an MIC [3] of 3.13 µg/mL. The MIC [4] was 100 µg/mL, the MIC [5] was 200 µg/mL and the MIC [6] was 200 µg/mL. For the same molecule, the MIC [7] was 0.78 µg/mL, the MIC [8] was 16 µg/mL and the MIC [9] was no more than 0.2 µg/mL. The MIC [10] was no more than 0.2 µg/mL, the MIC [11] was 25 µg/mL and the MIC [12] was 12.5 µg/mL. The MIC [13] was 12.5 µg/mL, the MIC [14] was 0.39 µg/mL and the MIC [15] was “<=0.2 ug ml-1”. It also gave an MIC [15, 23] of less than 0.25 µg/mL, an MIC [16] of less than 0.25 µg/mL and an MIC [17] of 50 µg/mL. It also gave an MIC [18] of less than 0.25 µg/mL, an MIC [19] of 12.5 µg/mL and an MIC [20] of 32 µg/mL.
`CC(C)(O/N=C(\C(=O)N[C@@H]1C(=O)N2C(C(=O)[O-])=C(C[n+]3ccccc3)CS[C@H]12)c1csc(N)n1)C(=O)O.CC1(C)[C@H](C(=O)[O-])N2C(=O)[C@@H]([C@@H](O)c3ccccc3)[C@H]2S1(=O)=O.[Na+]` was tested, and the MIC [1] was 2 µg/mL, the MIC [2] was less than 0.25 µg/mL and the MIC [15, 23] was less than 0.25 µg/mL. For the same molecule, the MIC [16] was less than 0.25 µg/mL, the MIC [18] was less than 0.25 µg/mL and the MIC [21] was 16 µg/mL. The MIC [22] was 32 µg/mL.
